Assay results reported in publication PMC4110683 (Chemistry and physics of lipids, 2013).
Converted amounts (≈) assume the structure as drawn. Where two headings read alike, the source gives them in different places.

Columns and labels:
M. smegmatis mc^2 155 = conditions: ref Morbidoni et al., 2006; cited from earlier work
P. falciparum K1 [1] = experiment: Toxicity to P. falciparum K1 strain; type: cell-based, Plasmodium falciparum; conditions: Plasmodium falciparum, K1, read-out: IC50 P. falciparum K1
PfFabI [2] = target: T1, PfFabI (Plasmodium falciparum, UniProt Q9BH77); experiment: Inhibition of PfFabI; type: biochemical
T1 sequence (Q9BH77 22-432): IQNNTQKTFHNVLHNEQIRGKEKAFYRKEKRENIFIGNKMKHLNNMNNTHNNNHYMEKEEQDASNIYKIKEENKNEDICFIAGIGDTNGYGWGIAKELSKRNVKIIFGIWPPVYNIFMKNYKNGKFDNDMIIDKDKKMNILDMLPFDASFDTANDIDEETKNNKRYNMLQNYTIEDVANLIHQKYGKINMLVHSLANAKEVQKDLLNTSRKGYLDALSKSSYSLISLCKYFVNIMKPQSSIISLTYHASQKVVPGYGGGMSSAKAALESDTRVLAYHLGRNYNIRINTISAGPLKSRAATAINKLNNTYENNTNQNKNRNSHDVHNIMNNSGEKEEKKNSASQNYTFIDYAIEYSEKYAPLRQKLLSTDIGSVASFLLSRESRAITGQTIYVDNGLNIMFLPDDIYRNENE

PfFabG = PfFabG (Plasmodium falciparum, UniProt Q8I2S7); experiment: biochemical
hTopIB [3] = target: T2, hTopIB (Homo sapiens, UniProt P11387); experiment: Inhibition of relaxation activity of hTopIB; type: biochemical
T2 sequence (P11387 1-765): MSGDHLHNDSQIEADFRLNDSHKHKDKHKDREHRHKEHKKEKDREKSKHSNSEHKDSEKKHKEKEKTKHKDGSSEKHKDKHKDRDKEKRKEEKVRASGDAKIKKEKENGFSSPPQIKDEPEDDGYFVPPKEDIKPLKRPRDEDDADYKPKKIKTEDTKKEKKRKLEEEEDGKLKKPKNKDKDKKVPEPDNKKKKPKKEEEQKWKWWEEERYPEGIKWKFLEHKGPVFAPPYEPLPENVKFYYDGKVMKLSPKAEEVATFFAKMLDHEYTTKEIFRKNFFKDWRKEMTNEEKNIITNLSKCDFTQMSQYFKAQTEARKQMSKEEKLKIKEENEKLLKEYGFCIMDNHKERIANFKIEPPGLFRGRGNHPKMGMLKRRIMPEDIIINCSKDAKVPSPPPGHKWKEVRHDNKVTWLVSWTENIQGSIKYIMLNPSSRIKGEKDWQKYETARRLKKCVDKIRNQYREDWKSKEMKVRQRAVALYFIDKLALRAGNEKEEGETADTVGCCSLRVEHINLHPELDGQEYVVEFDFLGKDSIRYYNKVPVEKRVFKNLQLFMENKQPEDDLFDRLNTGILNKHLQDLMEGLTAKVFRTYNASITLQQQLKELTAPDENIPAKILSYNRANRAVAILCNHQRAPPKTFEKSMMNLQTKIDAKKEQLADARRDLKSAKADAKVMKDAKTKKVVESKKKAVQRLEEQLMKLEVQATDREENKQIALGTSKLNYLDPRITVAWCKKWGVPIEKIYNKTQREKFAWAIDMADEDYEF

[4] = tested on: Mycobacterium tuberculosis H37Rv; conditions: ref Morbidoni et al., 2006; cited from earlier work
[5] = tested on: InhA, the enoyl-ACP reductase; conditions: in words; ref Morbidoni et al., 2006; cited from earlier work
[6] = tested on: hepatoma 7288 (HTC) cells; conditions: ref Upreti et al., 1981; cited from earlier work
Staphylococcus aureus = conditions: ref Konthikamee et al., 1982; cited from earlier work
Neisseria flava = conditions: ref Konthikamee et al., 1982; cited from earlier work
Bacteroides fragilis = conditions: ref Konthikamee et al., 1982; cited from earlier work
Escherichia coli = conditions: in words; ref Konthikamee et al., 1982; cited from earlier work
Pseudomonas aeruginosa = conditions: in words; ref Konthikamee et al., 1982; cited from earlier work
PfFabI [7] = target: T1, PfFabI; conditions: with respect to crotonyl-CoA and the cofactor NADH; ref Tasdemir et al., 2010; cited from earlier work
PfFabZ [8] = target: T3, PfFabZ (Plasmodium falciparum, UniProt Q965D7); conditions: with respect to the substrate; ref Tasdemir et al., 2010; cited from earlier work
T3 sequence (Q965D7 19-230): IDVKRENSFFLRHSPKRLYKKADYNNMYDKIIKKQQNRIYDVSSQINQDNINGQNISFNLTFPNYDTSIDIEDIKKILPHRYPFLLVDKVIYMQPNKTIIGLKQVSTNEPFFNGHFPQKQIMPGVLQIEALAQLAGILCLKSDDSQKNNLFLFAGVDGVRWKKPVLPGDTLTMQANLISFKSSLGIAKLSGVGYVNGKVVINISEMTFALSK

[9] = tested on: L. donovani promastigotes; conditions: cited from earlier work; for IC50: read-out: IC50 L. donovani promastigotes, 2012; for IC50 / EC50 L. donovani promastigotes / Effectiveness towards L. donovani: ref Carballeira et al.; for EC50 L. donovani promastigotes / Effectiveness towards L. donovani: 2009; for Motility of L. donovani promastigotes: at levels of 100 μg/mL, ref Cunningham et al., 1972; for Motility of L. donovani promastigotes / Effectiveness towards L. donovani: in words; for MIC L. donovani promastigotes: ref Chaudhuri et al., 1986
LdTopIB = conditions: ref Carballeira et al., cited from earlier work
hTopIB [10] = target: T2, hTopIB; conditions: read-out: hTopIB EC50; relaxation activity; ref Carballeira et al., 2012; cited from earlier work
[11] = tested on: BALB/c murine macrophages; conditions: read-out: Murine macrophages BALB/c IC50; ref Carballeira et al., 2012; cited from earlier work
[12] = tested on: Leishmania infantum promastigotes; conditions: read-out: IC50 Leishmania infantum promastigotes; ref Carballeira et al., 2012; cited from earlier work
PfFabZ [13] = target: T3, PfFabZ; experiment: Inhibition of PfFabZ; type: biochemical
[14] = tested on: FCR3 strain of P. falciparum; conditions: ref Krugliak et al., 1995; cited from earlier work
P. falciparum = conditions: in words; ref Kumaratilake et al., 1992; 1997; cited from earlier work
P. falciparum K1 [15] = conditions: ref Suksamrarn et al., 2005; cited from earlier work
[16] = read-out: LdTopIB EC50, relaxation activity, 2012

## CCCCCCCCCCCCCCCCCCCC#CC(=O)O [2-Docosynoic acid]
M. smegmatis mc^2 155
  MIC against M. smegmatis mc^2 155: >300 µM

## CCCCCCCCCC#CC(=O)O [2-Dodecynoic acid]
M. smegmatis mc^2 155
  MIC against M. smegmatis mc^2 155: >300 µM

## CCCCCCCCCCCCCCCCCC#CC(=O)O [2-Eicosynoic acid]
M. smegmatis mc^2 155
  MIC against M. smegmatis mc^2 155: >300 µM

## CCCCCCCCCCCCCC#CC(=O)O [2-HDA, 2-hexadecynoic acid]
P. falciparum K1 [1]
  IC50: 41.2 µM
PfFabI [2]; read-out: IC50 PfFabI, Carballeira and Tasdemir, unpublished data
  IC50: 1.5 µM
PfFabG; read-out: IC50 PfFabG, Carballeira and Tasdemir, unpublished data
  IC50: 13.9 µM
hTopIB [3]
  IC50: 361 ± 1 µM
M. smegmatis mc^2 155
  MIC against M. smegmatis mc^2 155: 10 µM (≈ 2.52 µg/mL)
[4]
  MIC against Mycobacterium tuberculosis H37Rv: 20 to 25 µM
[5]
  Inhibition of InhA: able to inhibit
[6]
  LD50, growth of cultured hepatoma 7288 (HTC) cells: 35 to 85 µM
Staphylococcus aureus
  MIC Staphylococcus aureus: 21.4 µM (≈ 5.4 µg/mL)
Neisseria flava
  MIC Neisseria flava: 21.4 µM (≈ 5.4 µg/mL)
Bacteroides fragilis
  MIC Bacteroides fragilis: 21.4 µM (≈ 5.4 µg/mL)
Escherichia coli
  Effectiveness against Escherichia coli: not effective
Pseudomonas aeruginosa
  Effectiveness against Pseudomonas aeruginosa: not effective
PfFabI [7]
  Mode of inhibition of PfFabI: non-competitive
PfFabZ [8]
  Mode of inhibition of PfFabZ: competitively inhibit
[9]
  IC50: 17.8 µM
LdTopIB; [16]
  EC50: 28.7 ± 1.3 µM
hTopIB [10]
  EC50: > 100 µM
[11]
  IC50: > 100 µM
[12]
  IC50: 14.9 µM

## CCCCCCCCCCCCCCCCC#CC(=O)O [2-Nonadecynoic acid]
M. smegmatis mc^2 155
  MIC against M. smegmatis mc^2 155: 35 µM (≈ 10.3 µg/mL)
[4]
  MIC against Mycobacterium tuberculosis H37Rv: 20 to 25 µM

## CCCCCCCCCCCC#CC(=O)O [2-TDA, 2-tetradecynoic acid]
P. falciparum K1 [1]
  IC50: 122 µM
PfFabI [2]
  IC50: 5.3 µM
PfFabZ [13]
  IC50: 15.6 µM
PfFabG
  IC50: 24.5 µM
M. smegmatis mc^2 155
  MIC against M. smegmatis mc^2 155: 266 µM (≈ 59.7 µg/mL)
[9]
  IC50: 24.7 µM
LdTopIB; [16]
  EC50: 67.8 ± 1.1 µM
hTopIB [10]
  EC50: > 100 µM
[11]
  IC50: > 100 µM

## CCCCCCCCCCCCC#CCC(=O)O [3-Hexadecynoic acid]
M. smegmatis mc^2 155
  MIC against M. smegmatis mc^2 155: 20 µM (≈ 5.05 µg/mL)

## CCCCCCCCCCCCCCC#CCC(=O)O [3-Octadecynoic acid]
M. smegmatis mc^2 155
  MIC against M. smegmatis mc^2 155: 36 µM (≈ 10.1 µg/mL)

## CCCCCCCCCCCC#CCCC(=O)O [4-Hexadecynoic acid]
M. smegmatis mc^2 155
  MIC against M. smegmatis mc^2 155: 30 µM (≈ 7.57 µg/mL)

## CCCCCCCCCCCCCC#CCCC(=O)O [4-Octadecynoic acid]
M. smegmatis mc^2 155
  MIC against M. smegmatis mc^2 155: >300 µM

## CCCCCCCCCCC#CCCCC(=O)O [5-Hexadecynoic acid]
M. smegmatis mc^2 155
  MIC against M. smegmatis mc^2 155: 80 µM (≈ 20.2 µg/mL)

## CCCCCCCCCCCCC#CCCCC(=O)O [5-Octadecynoic acid]
M. smegmatis mc^2 155
  MIC against M. smegmatis mc^2 155: 360 µM (≈ 101 µg/mL)

## CCCCCCCCCCC#CCCCCC(=O)O [6-heptadecynoic, 6-heptadecynoic acid]
[9]
  EC50 L. donovani promastigotes: 1 to 6 µg/mL

## CCCCCCCCCCCCCC#CCCCCC(=O)O [6-icosynoic acid]
[9]
  EC50 L. donovani promastigotes: 1 to 6 µg/mL
LdTopIB; read-out: EC50 LdTopIB, 2009
  EC50: 36 to 49 µM

## CCCCCCCCCCCCCCCC(=O)O [16:0, hexadecanoic acid, reference compound]
P. falciparum K1 [1]
  IC50: > 100 µM
PfFabI [2]
  IC50: > 100 µM
PfFabZ [13]
  IC50: > 100 µM
PfFabG
  IC50: > 100 µM
[9]
  Motility of L. donovani promastigotes: inhibited the motility

## CC[C@@]1(O)C(=O)OCc2c1cc1n(c2=O)Cc2cc3ccccc3nc2-1 [CPT, camptothecin, reference compound]
LdTopIB; [16]
  EC50: 0.67 ± 0.08 µM
[11]
  IC50: 0.62 ± 0.13 µM

## CCCCC/C=C\C/C=C\CCCCCCCC(=O)O [linoleic acid]
[14]
  IC50 killing FCR3 strain of P. falciparum: 76 µg/mL

## CC/C=C\C/C=C\C/C=C\CCCCCCCC(=O)O [linolenic acid]
[14]
  IC50 killing FCR3 strain of P. falciparum: 92 µg/mL

## CCCCCCCCCC(=O)O [n-decanoic acid]
[9]
  Motility of L. donovani promastigotes: inhibited the motility

## CCCCCCCCCCCC(=O)O [n-dodecanoic acid]
[9]
  Motility of L. donovani promastigotes: inhibited the motility

## CCCCCCCCCCCCCCCCCCCC(=O)O [n-eicosanoic acid, reference compound]
[9]
  Effectiveness towards L. donovani: not effective

## CCCCCCCCCCCCCCCCC(=O)O [n-heptadecanoic acid, reference compound]
[9]
  Effectiveness towards L. donovani: not effective

## CCCCCCCCCCCCCCCCCC(=O)O [octadecanoic acid]
[9]
  MIC L. donovani promastigotes: 1.39 µmol/mL (≈ 395 µg/mL)

## CCCCCCCC/C=C\CCCCCCCC(=O)O [oleic acid, 9-cis-Octadecenoic acid, reference compound]
[14]
  IC50 killing FCR3 strain of P. falciparum: 23 µg/mL
P. falciparum
  Parasite killing of P. falciparum: negligible parasite killing
[9]
  Motility of L. donovani promastigotes: no effect
  MIC L. donovani promastigotes: 0.09 µmol/mL (≈ 25.4 µg/mL)

## C=CCCC#CCCCCCCCCCCCC(=O)O [scleropyric acid]
P. falciparum K1 [15]
  IC50 K1 multidrug-resistant P. falciparum: 7.2 µg/mL (≈ 25.9 µM)
